Here are results for 19 compounds from patent US20260306460A1, “COMPOSITION FOR REMOVING AND INHIBITING SENESCENT CELLS, AND USES THEREOF” (LIFECEUTIX CO., LTD., priority 2023, published 2026).

The subject of assay [1] is naturally aged C57BL6J mice. Format: in vivo, mouse. Conditions: mouse, in vivo.
The next assay relates to naturally aged mice. Description: Anti-aging evaluation in naturally aged mice, Example 31, Table 55.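 On all read-outs here: Vehicle-dosed control mice received solution alone at matching volume, values compare test-compound-treated aged mice against that control.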 Format: in vivo, mouse. Conditions: for Femur Ctsk mRNA / Kidney Agtr1a mRNA / Liver IL6 mRNA / Liver MMP3 mRNA / Liver p16 mRNA / Open Field Test Time in Center: untreated = 100%; for Heart Sur2a mRNA / Joint Col2a1 mRNA / Skin Col1a1 mRNA / Skin SDF1 mRNA: untreated = 1.0; for Muscle Mass: untreated 0.64 g; for Fat Mass: untreated 0.82 g; for Cataract incidence: untreated 83%.

In assay [2] the test system is bleomycin-induced pulmonary fibrosis mice. Kind of assay: Bleomycin-induced pulmonary fibrosis mice, Example 31, Table 56. Conditions: untreated = 100%. The assay is classed as in vivo, mouse. The method, then: (§1) The control group was administered only the solution in the same volume. After the end of drug administration, the method described in each example below was performed. Liver, kidney, skin, knee joint, heart, and femur tissues were collected from mice in which natural aging was induced in the same manner as in Examples 7-2 and 7-6 of WO2023-085787 A1. Lung tissues were collected from mice in which pulmonary fibrosis was induced using the same method as in Example 24-1. Liver tissues were collected from mice in which hepatic fibrosis was induced using the same method as in Example 26, and total RNA was extracted. qRT-PCR was performed and analyzed using the synthesized cDNA. […] The mRNA amounts of p16, MMP3, and IL6 after natural aging was induced were calculated as 100% and compared with the mRNA amounts of p16, MMP3, and IL6 after treatment with the test compound. In addition, an open field test for the analysis of aging-related frailty, agtr1a mRNA analysis for kidney damage and disease evaluation, col1a1 and SDF1 mRNA analysis for skin aging evaluation such as wrinkles/loss of elasticity/hyperpigmentation, col2a1 mRNA analysis for evaluating joint aging such as osteoarthritis, sur2a mRNA analysis for evaluating cardiac aging such as decreased cardiac load resistance, ctsk mRNA analysis for evaluating bone diseases due to aging such as osteoporosis, muscle tissue weight for analyzing sarcopenia, fat tissue weight for analyzing lipoatrophy, and cataract incidence analysis were performed in mice. For cataract incidence analysis, the drug was administered twice a week under the conditions specified above, and biweekly examinations were conducted until death.
The table below quantitatively presents the evaluation results for each item in mice with bleomycin-induced pulmonary fibrosis, untreated and treated with the test compound.

Assay [3] concerns carbon tetrachloride-induced liver fibrosis mice. Description: Carbon tetrachloride-induced liver fibrosis mice, Example 31, Table 57. As to conditions: CCl4-induced liver fibrosis mice, untreated = 100%. Format: in vivo, mouse. As for the experimental part: as §1
The test system of another assay is senescent cells. Description: Viability of senescent cells (CellTiter-Glo), Example 17, Table 13. Conditions: Homo sapiens, read-out: Survival (%). In general terms: ATP-based viability assays read luminescence as a measure of living cells.
The subject of the next assay is senescent A549 cells. Description: Viability of senescent A549 cells (CellTiter-Glo), Example 18, Table 15. Conditions: Homo sapiens, A549, read-out: Survival (%).

Description for senescent A549 cells: Senescence-induced cancer cells treated with doxorubicin were treated with the test compound at designated concentrations, and cell viability was measured using the CellTiter-Glo Luminescent Cell Viability Assay (Promega).
Description for senescent cells: Cells induced to undergo senescence by doxorubicin treatment were treated with test compound at designated concentrations and measured using the CellTiter-Glo Luminescent Cell Viability Assay (Promega).

As for `C[C@@H]1C(=O)C(C#N)=C[C@]2(c3ccccc3)c3c(c(-c4cccnc4)nn3C)CC[C@@H]12` [LX-2407, (5aS,6S,9aR)-1,6-dimethyl-7-oxo-9a-phenyl-3-(pyridin-3-yl)-4,5,5a,6,7,9a-hexahydro-1H-benzo[g]indazole-8-carbonitrile], the wound/damage healing improvement result in assay [1] was “damage treatment and recovery”.

In the case of `CCC[C@H]1C(=O)C(C#N)=C[C@@]2(C)c3nc(-c4cccc5ncccc45)nc(-c4ccccc4F)c3CC[C@H]12` [LX-2503], the wound/damage healing improvement entry in assay [1] is “damage treatment and recovery”.

Consider `COC(=O)[C@]12CCC(C)(C)C[C@H]1[C@H]1C(=O)C=C3[C@@]4(C)C=C(C#N)C(=O)[C@@H](C)[C@@H]4CC[C@@]3(C)[C@]1(C)CC2` [LX-2316], for which the wound/damage healing improvement entry in assay [1] was “damage treatment and recovery”.

Consider `CONC(=O)[C@]12CCC(C)(C)C[C@H]1[C@H]1C(=O)C=C3[C@@]4(C)C=C(C#N)C(=O)C(C)(C)[C@@H]4CC[C@@]3(C)[C@]1(C)CC2` [LX-2310], for which, in assay [1], the wound/damage healing improvement entry was “damage treatment and recovery”.

Consider `COC(=O)[C@@]1(C)CC[C@]2(C)CC[C@]3(C)[C@H](C(=O)C=C4[C@@]5(C)C=C(C#N)C(=O)C(C)(C)C5CC[C@]43C)[C@@H]2C1` (some centres unmarked) [LX-2513, Soloxolone methyl], for which the wound/damage healing improvement entry in assay [1] was “damage treatment and recovery”.

`C=CC(=O)NC[C@]12CCC(C)(C)C[C@H]1[C@H]1C(=O)C=C3[C@@]4(C)C=C(C#N)C(=O)C(C)(C)[C@@H]4CC[C@@]3(C)[C@]1(C)CC2` [LX-2509]: the wound/damage healing improvement result in assay [1] is “damage treatment and recovery”.

For the compound `COC(=O)[C@]12CCC(C)(C)C[C@H]1[C@H]1C(=O)C[C@@H]3[C@@]4(C)C=C(C#N)C(=O)C(C)(C)[C@@H]4CC[C@@]3(C)[C@]1(C)CC2` [LX-2301], the wound/damage healing improvement entry in assay [1] is “damage treatment and recovery”.

As to `CC1(C)CC[C@]2(c3nc(CO)no3)CC[C@]3(C)[C@H](C(=O)C=C4[C@@]5(C)C=C(C#N)C(=O)C(C)(C)[C@@H]5CC[C@]43C)[C@@H]2C1` [LX-2508], the wound/damage healing improvement result in assay [1] is “damage treatment and recovery”.

On to `C=C(C)[C@@H]1CC[C@]2(C(=O)NCC)CC[C@]3(C)[C@H](CCC4[C@@]5(C)C=C(C#N)C(=O)C(C)(C)[C@@H]5CC[C@]43C)[C@@H]12` (some centres unmarked) [LX-2311], for which the wound/damage healing improvement entry in assay [1] is “damage treatment and recovery”.

On to `C[C@@H]1C(=O)C(C#N)=C[C@]2(C)C3=CC(=O)[C@@H]4[C@@H]5CC(C)(C)CC[C@]5(CO)CC[C@@]4(C)[C@]3(C)CC[C@@H]12` [LX-2317], for which the wound/damage healing improvement entry in assay [1] was “damage treatment and recovery”.

For the compound `Cc1cc(-c2ccc(-n3nc(-c4ccccc4F)c4c3[C@]3(C)C=C(C#N)C(=O)[C@H](C)[C@H]3CC4)cc2)cnn1` [LX-2506], the wound/damage healing improvement entry in assay [1] is “damage treatment and recovery”.

With `C[C@@H]1[C@H]2[C@H]3C(=O)C=C4[C@@]5(C)C=C(C#N)C(=O)C(C)(C)[C@@H]5CC[C@@]4(C)[C@]3(C)CC[C@@]2(c2nc(CCO)no2)CC[C@H]1C` [LX-2511], the wound/damage healing improvement entry in assay [1] was “damage treatment and recovery”.

`CCC[C@H]1C(=O)C(C#N)=C[C@@]2(C)c3nc(-c4cccc5ccccc45)nc(-c4ccccc4F)c3CC[C@H]12` [LX-2502]: the wound/damage healing improvement result in assay [1] is “damage treatment and recovery”.

For `CCNC(=O)CC[C@]12CCC(C)(C)C[C@H]1[C@H]1C(=O)C=C3[C@@]4(C)C=C(C#N)C(=O)C(C)(C)[C@@H]4CC[C@@]3(C)[C@]1(C)CC2` [LX-2402], the wound/damage healing improvement result in assay [1] is “damage treatment and recovery”.

Take `CC1(C)CC[C@]2(CO)CC[C@]3(C)[C@H](C(=O)C=C4[C@@]5(C)[C@H]6O[C@@]6(C#N)C(=O)C(C)(C)[C@@H]5CC[C@]43C)[C@@H]2C1` [LX-2318]: the wound/damage healing improvement entry in assay [1] was “damage treatment and recovery”.

With `CC12CCN(CC1)C(CNC(=O)C(F)(F)F)C2=O` (centres unmarked) [LX-5706], in the assay with naturally aged mice, the “Femur Ctsk mRNA” value was 68%, the “Heart Sur2a mRNA” value was 2 fold, the “Joint Col2a1 mRNA” value was determined as 1.9 fold and the “Kidney Agtr1a mRNA” value came out at 70%. Further, in the assay with naturally aged mice, the “Liver IL6 mRNA” value is given as 71%, the “Liver MMP3 mRNA” value is 60%, the “Liver p16 mRNA” value is reported as 64% and the “Open Field Test Time in Center” value was 171%. Further, in the assay on naturally aged mice, the “Skin Col1a1 mRNA” value was determined as 1.6 Fold, the “Skin SDF1 mRNA” value stood at 1.4 fold, the “Muscle Mass” value came to 0.69 g and the “Fat Mass” value came to 0.85 g. This compound showed a Cataract incidence in the assay on naturally aged mice of 74%. In assay [2], the “Lung p16 mRNA” value is 76 (±6.1) % and the “Col1a1 mRNA” value is given as 79 (±5.2) %. Moreover, in assay [3], the “Liver p16 mRNA” value is given as 69 (±6.9) % and the “Col1a1 mRNA” value is 70 (±4.8) %. For the same compound, in the assay with senescent cells, the viability at 1.1 µM was determined as 96.5% and the viability at 10 µM came to 12.7%. In the assay on senescent A549 cells, the viability at 1.1 µM was 88.5%, the viability at 10 µM was 31% and the viability at 30 µM worked out at 0.3%.

Regarding `CC12CCN(CC1)C(CN(C1CC1)S(C)(=O)=O)C2=O` (centres unmarked) [LX-5707], in the assay with naturally aged mice, the “Femur Ctsk mRNA” value turned out to be 64%, the “Heart Sur2a mRNA” value is reported as 2.3 fold, the “Joint Col2a1 mRNA” value was 2.0 fold and the “Kidney Agtr1a mRNA” value worked out at 65%. Moreover, in the assay on naturally aged mice, the “Liver IL6 mRNA” value stood at 61%, the “Liver MMP3 mRNA” value is on record as 63%, the “Liver p16 mRNA” value was determined as 59% and the “Open Field Test Time in Center” value came out at 199%. In the assay with naturally aged mice, the “Skin Col1a1 mRNA” value is 1.7 Fold, the “Skin SDF1 mRNA” value is given as 1.6 fold, the “Muscle Mass” value was 0.70 g and the “Fat Mass” value turned out to be 0.90 g. Further, in the assay with naturally aged mice, the Cataract incidence amounted to 70%. In addition, in assay [2], the “Lung p16 mRNA” value is reported as 72 (±8.9) % and the “Col1a1 mRNA” value is recorded as 69 (±7.1) %. Also, in assay [3], the “Liver p16 mRNA” value is recorded as 64 (±8.3) % and the “Col1a1 mRNA” value is given as 72 (±9.6) %. Further, in the assay on senescent cells, the viability at 1.1 µM worked out at 103% and the viability at 10 µM was found to be 27.3%. Further, in the assay with senescent A549 cells, the viability at 1.1 µM was found to be 81%, the viability at 10 µM was found to be 37.3% and the viability at 30 µM is 4.3%.

As for `O=C1C2CCN(CC2)C1(CO)COCc1ccccc1` (centres unmarked) [LX-5711], in the assay with naturally aged mice, the “Femur Ctsk mRNA” value stood at 62%, the “Heart Sur2a mRNA” value turned out to be 2.3 fold, the “Joint Col2a1 mRNA” value stood at 2.3 fold and the “Kidney Agtr1a mRNA” value was found to be 63%. In the assay on naturally aged mice, the “Liver IL6 mRNA” value came out at 48%, the “Liver MMP3 mRNA” value stood at 61%, the “Liver p16 mRNA” value turned out to be 65% and the “Open Field Test Time in Center” value was 191%. In addition, in the assay with naturally aged mice, the “Skin Col1a1 mRNA” value worked out at 1.5 Fold, the “Skin SDF1 mRNA” value came to 1.8 fold, the “Muscle Mass” value is recorded as 0.68 g and the “Fat Mass” value came to 0.93 g. In the assay on naturally aged mice, this compound gave a Cataract incidence of 72%. In addition, in assay [2], the “Lung p16 mRNA” value is reported as 70 (±3.8) % and the “Col1a1 mRNA” value is recorded as 71 (±4.0) %. Also, in assay [3], the “Liver p16 mRNA” value is given as 63 (±4.3) % and the “Col1a1 mRNA” value is listed as 74 (±3.0) %. For the same compound, in the assay with senescent cells, the viability at 1.1 µM amounted to 95.1%, the viability at 10 µM is 63.7% and the viability at 30 µM turned out to be 20.6%. For the same compound, in the assay with senescent A549 cells, the viability at 1.1 µM is 89%, the viability at 10 µM amounted to 52.5% and the viability at 30 µM turned out to be 11.9%.

Consider `C[S+]([O-])CCCCN=C=S` (centres unmarked) [LX-7103, Sulforaphane], for which, in the assay with naturally aged mice, the “Femur Ctsk mRNA” value is listed as 65%, the “Heart Sur2a mRNA” value came to 2.1 fold, the “Joint Col2a1 mRNA” value was 2.3 fold and the “Kidney Agtr1a mRNA” value is 67%. Moreover, in the assay with naturally aged mice, the “Liver IL6 mRNA” value is listed as 67%, the “Liver MMP3 mRNA” value stood at 79%, the “Liver p16 mRNA” value is 65% and the “Open Field Test Time in Center” value was 218%. Also, in the assay with naturally aged mice, the “Skin Col1a1 mRNA” value is given as 2.6 Fold, the “Skin SDF1 mRNA” value amounted to 2.6 fold, the “Muscle Mass” value is listed as 0.67 g and the “Fat Mass” value is recorded as 0.96 g. The compound further showed a Cataract incidence in the assay with naturally aged mice of 69%. In addition, in assay [2], the “Lung p16 mRNA” value is 65 (±2.1) % and the “Col1a1 mRNA” value is 66 (±4.5) %. Besides, in assay [3], the “Liver p16 mRNA” value is listed as 70 (±2.2) % and the “Col1a1 mRNA” value is listed as 68 (±2.9) %. Moreover, in the assay on senescent cells, the viability at 1.1 µM was determined as 84.3% and the viability at 10 µM came out at 7.9%. In the assay with senescent A549 cells, the viability at 1.1 µM came out at 102%, the viability at 10 µM worked out at 37.6% and the viability at 30 µM is 4.1%.
